These results are taken from ChEMBL document CHEMBL5518183, “Broad-spectrum antiviral strategy: Host-targeting antivirals against emerging and re-emerging viruses” (Eur J Med Chem, 2024).

≈ marks a conversion by molar mass, not a printed value.

Data set [1] deals with Human immunodeficiency virus 1. Kind of data set: Antiviral activity against HIV-1 infected in human MT4 cells assessed as reduction in virus induced cytopathic effect incubated for 5 days by Cell Titer Glo luminescent assay. The settings on record: Human immunodeficiency virus 1, MT4, 120 h. It counts as functional, organism-based. (In general: Cytopathic effects are the visible damage that an infection or toxin causes in cultured cells.)

Data set [2] has as its system Middle East respiratory syndrome-related coronavirus. In words: Antiviral activity against MERS-CoV infected in human MRC5 cells assessed as reduction in viral replication measured after 48 hrs by qRT-PCR assay. It counts as functional, organism-based. The settings on record: MRC5, 48 h. A general note: In qPCR the cycle at which signal appears reflects the starting amount.

Data set [3] relates to Human coronavirus 229E. In words: Antiviral activity against HCoV-229E infected in human MRC5 cells incubated for 3 days measured by crystal violet staining based plaque counting analysis. It counts as functional, organism-based. The conditions noted are these: MRC5, 72 h.
The test system of data set [4] is Influenza B virus. In words: Antiviral activity against Influenza B virus assessed as inhibition of virus-induced cytopathic effect. It counts as functional, organism-based.
Data set [5] has as its system Influenza A virus. Kind of data set: Antiviral activity against influenza A virus H1N1 infected in MDCK cells assessed as reduction in virus induced cytopathic effect by CPE assay. It counts as functional, organism-based.
Data set [6] deals with H9. Kind of data set: Antitumor activity against human H9 cells assessed as cell growth inhibition. It counts as functional, cell-based.
Data set [7] has as its system Human immunodeficiency virus 1. Kind of data set: Antiviral activity against HIV1 infected in H9 cells assessed as reduction in viral replication. It counts as functional, organism-based. The settings on record: Human immunodeficiency virus 1, H9.
The test system of data set [8] is SARS-CoV-2. Kind of data set: Antiviral activity against SARS-CoV-2 infected in African green monkey Vero cells assessed as reduction in viral replication incubated for 24 hrs by Immunofluorescence assay. It counts as functional, organism-based. The conditions noted are these: Severe acute respiratory syndrome coronavirus 2, Vero.
Data set [9] relates to Chikungunya virus. In words: Antiviral activity against CHIKV infected in Vero 76 cells assessed as reduction in cytopathic effect. It counts as functional, organism-based.
The subject of data set [10] is Vesicular stomatitis virus. Kind of data set: Antiviral activity against Vesicular stomatitis virus infected in human A549 cells assessed as reduction in virus replication. It counts as functional.
A short description of data set [11]: Cytotoxicity against African green monkey Vero cells assessed as reduction in cell growth incubated for 72 hrs by MTT assay. It counts as toxicity, cell-based. The conditions noted are these: chlorocebus sabaeus. (Formazan colour is commonly taken as a measure of viable cells.)
Data set [12] relates to Western equine encephalitis virus. Kind of data set: Antiviral activity against Western equine encephalomyelitis virus infected in African green monkey Vero cells assessed as reduction in cytopathic effect. It counts as functional.
The test system of data set [13] is West Nile virus. In words: Antiviral activity against West Nile virus infected in African green monkey Vero 76 cells assessed as reduction in cytopathic effect. It counts as functional.
In data set [14] the test system is Yellow fever virus. Kind of data set: Antiviral activity against Yellow fever virus African green monkey Vero cells assessed as reduction in cytopathic effect. It counts as functional.
The test system of data set [15] is West Nile virus. Kind of data set: Antiviral activity against West Nile virus infected in human A549 cells assessed as reduction in virus replication incubated for 72 hrs by MTS assay. It counts as functional, organism-based. The settings on record: A549, 72 h.
The test system of data set [16] is Dengue virus. In words: Antiviral activity against Dengue virus assessed as inhibition of viral replication. It counts as functional, organism-based.
In data set [17] the test system is Human immunodeficiency virus 1. In words: Antiviral activity against HIV1 TC-1 infected in human PBMC assessed as inhibition of viral replication. The settings on record: Human immunodeficiency virus 1, TC-1, PBMC. It counts as functional, organism-based.
The test system of data set [18] is Hepatitis C virus. In words: Antiviral activity against HCV infected in human Huh-7 cells assessed as reduction in viral infection incubated for 72 hrs by qRT-PCR analysis. It counts as functional, organism-based, Hepacivirus hominis. The settings on record: Huh-7, 72 h.
Data set [19] has as its system dengue virus type 2. In words: Antiviral activity against DENV-2 infected in human Huh-7 cells at MOI of 0.05 assessed as log reduction of intracellular viral titre measured after 60 hrs post infection by RT-PCR analysis. It counts as functional, organism-based. The conditions noted are these: Huh-7, 60 h.
Data set [20] deals with SARS-CoV-2. In words: Antiviral activity against SARS-CoV-2 […] B.1.351 Beta infected in human Calu-3 cells assessed as reduction of viral growth measured after 48 hrs by luciferase assay. It counts as functional, organism-based. The conditions noted are these: Severe acute respiratory syndrome coronavirus 2.
Data set [21] relates to SARS-CoV-2. Kind of data set: Antiviral activity against SARS-CoV-2 B.1.1.7 infected in human Calu-3 cells assessed as inhibition of viral infection measured after 48 hrs by Hoechst 33342 staining based analysis. It counts as functional, organism-based. The conditions noted are these: Severe acute respiratory syndrome coronavirus 2, B.1.1.7, Calu-3, 48 h.
Data set [22] has as its system Ebolavirus. In words: Antiviral activity against Ebola virus infected in African green monkey Vero cells incubated for 3 days by immunofocus assay. It counts as functional, organism-based. The conditions noted are these: Orthoebolavirus, 72 h.
A short description of data set [23]: Cytotoxicity against African green monkey Vero cells assessed as reduction in cell viability measured after 72 hrs by MTT assay. It counts as toxicity, cell-based. The settings on record: chlorocebus sabaeus.
Data set [24] has as its system Monkeypox virus. Kind of data set: Antiviral activity against Monkeypox virus V79-1-005 infected in Vero cells assessed as reduction in viral replication measured after 4 days by colorimetric assay. It counts as functional, organism-based. The conditions noted are these: V79-1-005, Vero, 96 h.
For data set [25], the system named is Hepatitis C virus. In words: Antiviral activity against HCV infected in human Huh-7 cells assessed as reduction in viral infection. It counts as functional, organism-based, Hepacivirus hominis.

As for `Oc1ccccc1/C=N/Nc1nc(Nc2ccc(F)cc2)nc(Nc2ccc(F)cc2)n1`, in data set [1], the concentration for a half-maximal effect (EC50) worked out at 2 nM.

As to `COC(=O)[C@H]1[C@@H](O)[C@@]2(O)c3c(OC)cc(O[C@@H]4O[C@@H]([C@H](O)CO)CO[C@H]4OC)cc3O[C@@]2(c2ccc(OC)cc2)[C@@H]1c1ccccc1` [SILVESTROL], the EC50 is 1.3 nM in [2] and 3 nM in data set [3].

Consider `O=C(Nc1cccnc1)c1cccs1`, for which the EC50 in data set [4] and in data set [5] was 2300 nM in each case.

`CCN(CC)S(=O)(=O)c1ccc(OC)c(NC(=O)Cc2ccccc2[N+](=O)[O-])c1`: in [6], the IC50 was above 100000 nM. For the same molecule, the EC50 in [7] worked out at 25000 nM.

As to `CC[C@H](C)[C@H]1NC(=O)[C@@H](NC(=O)[C@@H](CC(C)C)N(C)C(=O)[C@@H]2CCCN2C(=O)C(C)=O)[C@@H](C)OC(=O)[C@H](Cc2ccc(OC)cc2)N(C)C(=O)[C@@H]2CCCN2C(=O)[C@H](CC(C)C)NC(=O)[C@@H](C)C(=O)[C@H](C(C)C)OC(=O)C[C@@H]1O` [PLITIDEPSIN], the EC50 in [8] was 0.7 nM.

As to `COc1cc2c(cc1C(=O)Nc1ccc(C(C)(C)C#N)cc1)CCCCC2`, the concentration giving a half-maximal response (EC50) in [9] was 270 nM.

With `COC(=O)c1c(-c2c(Cl)cccc2Cl)noc1-c1cnn(-c2cccc(Cl)c2)c1C(F)(F)F`, the EC90 in data set [10] was determined as 38.7 nM; in data set [12], 33.8 nM; in [13], 0.31 nM; in data set [14] it was 12.8 nM. For the same molecule, the 50% cytotoxic concentration (CC50) at 72 h in data set [11] was 5000 nM.

With `CCCCc1cn(-c2ccc(NC(=O)Nc3ccccc3C)cc2)nn1`, the EC50 in data set [15], in data set [16], in [17] and in data set [18] was 970 nM throughout.

On to `CN(/N=C/c1ccccc1C(=O)O)c1nc(-c2ccccc2Cl)cs1`, for which, in [19], the EC50 stood at 17 nM.

For the molecule `CS(=O)(=O)N[C@@H](CCC(N)=O)C(=O)N[C@@H](Cc1ccccc1)C(=O)N[C@@H](CCCNC(=N)N)C(=O)c1nc2ccccc2s1`, the IC50 in data set [20] and in [21] was 1.9 nM each time.

Consider `CCCCCN(CC)c1ccc(Oc2ccc(-c3c(C)c(=O)c4c(F)cccc4n3C)cc2F)cc1`, for which the IC50 in data set [22] was determined as 7 nM. Also, in data set [23], the CC50 at 72 h worked out at 10700 nM.

Turning to `CC[C@H](CC#N)OC(=O)N[C@@H](C)c1cccc(NC(=O)Nc2ccc(-c3cnco3)c(OC)c2)c1` [AVN-944], in data set [24], the EC50 is 34.5 nM.

As for `C/C=C/C[C@@H](C)[C@@H](O)[C@H]1C(=O)N[C@@H](CC)C(=O)N(C)C(C)C(=O)N(CC)[C@@H](CC(C)C)C(=O)N[C@@H](C(C)C)C(=O)N(C)[C@@H](CC(C)C)C(=O)N[C@@H](C)C(=O)N[C@H](C)C(=O)N(C)[C@@H](CC(C)C)C(=O)N(C)[C@@H](CC(C)C)C(=O)N(C)[C@@H](C(C)C)C(=O)N1C` (stereo not given in full), the half-maximal effective concentration (EC50) in [25] was found to be 0.27 µg/mL (≈ 0.219 µM).

A word on the EC50: it is the concentration that produces a half-maximal response. The term IC50 denotes the concentration at which inhibition is half-maximal. By EC90 is commonly meant the point of the concentration-response curve where the effect stands at 90%. As usually defined, the CC50 is the concentration giving 50% cytotoxicity.
